Measured values as given in patent publication US9771372B2, “Compounds useful as S100-inhibitors” (Active Biotech AB, priority 2014, dated 2017).

What follows are molecules tested against T1, interaction between biotinylated human S100A9 and human RAGE-Fc (Homo sapiens, UniProt P06702) (assay: AlphaScreen inhibition assay, Biot-hS100A9:hRAGE-Fc (S100A9-RAGE inhibition assay)). Settings: biot-hS100A9 and rhRAGE-Fc, Ca2+ and Zn2+ in buffer.
T1 construct: made in house; host or cells: E. coli BL21(DE3)/pET1120 (pLR757)
T1 sequence (P06702 1-114): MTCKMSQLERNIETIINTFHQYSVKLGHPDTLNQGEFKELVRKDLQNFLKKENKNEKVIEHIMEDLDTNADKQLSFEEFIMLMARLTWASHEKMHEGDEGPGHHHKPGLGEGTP
Format: binding
How it was run: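 Biotinylated human S100A9, in HBS-P with CaCl2 and ZnCl2, preincubated 1 h at room temperature in the dark with compound (final DMSO ≤1.25%), then combined with rhRAGE-Fc on protein A Acceptor beads plus streptavidin Donor beads (20 μg/mL each). Protein levels batch-dependent; percent inhibition from AlphaScreen signal vs DMSO-only control.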

Q: For `O=C(CC1CCCCC1)NC1(C(F)(F)F)C(=O)Nc2nc3cc(F)c(F)cc3n21` (stereo not shown) [Example 74, 2-cyclohexyl-N-[10,11-difluoro-4-oxo-3-(trifluoromethyl)-2,5,7-triazatricyclo[6.4.0.0^2,6]-dodeca-1(8),6,9,11-tetraen-3-yl]acetamide], which IC50 is on record?
A: 3600 nM

Q: How did the IC50 turn out when `COc1cc2nc3n(c2cc1OC)C(NC(=O)CCC1CCCC1)(C(F)(F)F)C(=O)N3` (stereo not shown) [Example 76, 3-cyclopentyl-N-[10,11-dimethoxy-4-oxo-3-(trifluoromethyl)-2,5,7-triazatricyclo-[6.4.0.0^2,6]dodeca-1(12),6,8,10-tetraen-3-yl]propanamide] was run?
A: 11400 nM

Q: Which IC50 does the source give for `Cc1cc2c(nc3n2C(NC(=O)c2ccccc2)(C(F)(F)F)C(=O)N3)c(Br)c1C` (stereo not shown) [Example 77, N-[9-bromo-10,11-dimethyl-4-oxo-3-(trifluoromethyl)-2,5,7-triazatricyclo[6.4.0.0^2,6]dodeca-1(8),6,9,11-tetraen-3-yl]benzamide] here?
A: 4300 nM

Q: `O=C(CCC1CCCC1)NC1(C(F)(F)F)C(=O)Nc2nc3cc4c(cc3n21)CCC4` (stereo not shown) [Example 78, 3-cyclopentyl-N-[12-oxo-11-(trifluoromethyl)-10,13,15-triazatetracyclo[7.6.0.0^3,7.0^10,14]-pentadeca-1(9),2,7,14-tetraen-11-yl]propanamide] was tested. Which IC50 did it give?
A: 1200 nM

Q: How did the IC50 turn out when `Cc1ccc2c(nc3n2C(NC(=O)CCC2CCCC2)(C(F)(F)F)C(=O)N3)c1C` (stereo not shown) [Example 80, 3-cyclopentyl-N-[9,10-dimethyl-4-oxo-3-(trifluoromethyl)-2,5,7-triazatricyclo[6.4.0.0^2,6]-dodeca-1(12),6,8,10-tetraen-3-yl]propanamide] was run?
A: 7400 nM

Q: How did the IC50 turn out when `Cc1cccc2c1nc1n2C(NC(=O)CCC2CCCC2)(C(F)(F)F)C(=O)N1` (stereo not shown) [Example 81, 3-cyclopentyl-N-[9-methyl-4-oxo-3-(trifluoromethyl)-2,5,7-triazatricyclo[6.4.0.0^2,6]dodeca-1(12),6,8,10-tetraen-3-yl]propanamide] was run?
A: 5600 nM

Q: For `O=C(CCC1CCCC1)NC1(C(F)(F)F)C(=O)Nc2nc3c(F)c(F)ccc3n21` (stereo not shown) [Example 82, 3-cyclopentyl-N-[9,10-difluoro-4-oxo-3-(trifluoromethyl)-2,5,7-triazatricyclo[6.4.0.0^2,6]-dodeca-1(12),6,8,10-tetraen-3-yl]propanamide], which IC50 is on record?
A: 1400 nM

Q: Which IC50 does the source give for `O=C(CCC1CCCC1)NC1(C(F)(F)F)C(=O)Nc2nc3c(Cl)c(Cl)ccc3n21` (stereo not shown) [Example 83, 3-cyclopentyl-N-[9,10-dichloro-4-oxo-3-(trifluoromethyl)-2,5,7-triazatricyclo[6.4.0.0^2,6]-dodeca-1(12),6,8,10-tetraen-3-yl]propanamide] here?
A: 600 nM

Q: How did the IC50 turn out when `O=C(CCC1CCCC1)NC1(C(F)(F)F)C(=O)Nc2nc3c(Cl)cc(Cl)cc3n21` (stereo not shown) [Example 84, 3-cyclopentyl-N-[9,11-dichloro-4-oxo-3-(trifluoromethyl)-2,5,7-triazatricyclo[6.4.0.0^2,6]-dodeca-1(12),6,8,10-tetraen-3-yl]propanamide] was run?
A: 1400 nM

Q: `O=C(CCC1CCCC1)NC1(C(F)(F)F)C(=O)Nc2nc3c(Cl)cccc3n21` (stereo not shown) [Example 85, N-[9-chloro-4-oxo-3-(trifluoromethyl)-2,5,7-triazatricyclo[6.4.0.0^2,6]dodeca-1(12),6,8,10-tetraen-3-yl]-3-cyclopentylpropanamide] was tested. Which IC50 did it give?
A: 2600 nM

Q: For `O=C(CCC1CCCC1)NC1(C(F)(F)F)C(=O)Nc2nc3c(F)cc(F)cc3n21` (stereo not shown) [Example 86, 3-cyclopentyl-N-[9,11-difluoro-4-oxo-3-(trifluoromethyl)-2,5,7-triazatricyclo-[6.4.0.0^2,6]dodeca-1(12),6,8,10-tetraen-3-yl]propanamide], which IC50 is on record?
A: 6400 nM

Q: With `O=C(CCC1(O)CCCC1)NC1(C(F)(F)F)C(=O)Nc2nc3cc(Cl)c(Cl)cc3n21` (stereo not shown) [Example 88, N-[10,11-dichloro-4-oxo-3-(trifluoromethyl)-2,5,7-triazatricyclo[6.4.0.0^2,6]dodeca-1(8),6,9,11-tetraen-3-yl]-3-(1-hydroxycyclopentyl)propanamide] as the molecule, how does the IC50 read?
A: 1610 nM

Q: How did the IC50 turn out when `O=C(NC1(C(F)(F)F)C(=O)Nc2nc3cc(Cl)c(Cl)cc3n21)c1cccc(NCCO)n1` (stereo not shown) [Example 91, N-[10,11-dichloro-4-oxo-3-(trifluoromethyl)-2,5,7-triazatricyclo[6.4.0.0^2,6]dodeca-1(8),6,9,11-tetraen-3-yl]-6-[(2-hydroxyethyl)amino]pyridine-2-carboxamide] was run?
A: 260 nM

Q: With `CN(C)CCNc1cccc(C(=O)NC2(C(F)(F)F)C(=O)Nc3nc4cc(Cl)c(Cl)cc4n32)n1` (stereo not shown) [Example 93, N-[10,11-dichloro-4-oxo-3-(trifluoromethyl)-2,5,7-triazatricyclo[6.4.0.0^2,6]dodeca-1(8),6,9,11-tetraen-3-yl]-6-{[2-(dimethylamino)ethyl]amino}pyridine-2-carboxamide] as the molecule, how does the IC50 read?
A: 600 nM

Q: How did the IC50 turn out when `COCCN(C)c1cccc(C(=O)NC2(C(F)(F)F)C(=O)Nc3nc4cc(Cl)c(Cl)cc4n32)n1` (stereo not shown) [Example 94, N-[10,11-dichloro-4-oxo-3-(trifluoromethyl)-2,5,7-triazatricyclo[6.4.0.0^2,6]dodeca-1(8),6,9,11-tetraen-3-yl]-6-[(2-methoxyethyl)(methyl)amino]pyridine-2-carboxamide] was run?
A: 1590 nM

Q: For `COC(=O)c1cccc(C(=O)NC2(C(F)(F)F)C(=O)Nc3nc4cc(Cl)c(Cl)cc4n32)n1` (stereo not shown) [Example 95, methyl 6-{[10,11-dichloro-4-oxo-3-(trifluoromethyl)-2,5,7-triazatricyclo[6.4.0.0^2,6]dodeca-1(8),6,9,11-tetraen-3-yl]carbamoyl}pyridine-2-carboxylate], which IC50 is on record?
A: 1080 nM

Q: `O=C(NC1(C(F)(F)F)C(=O)Nc2nc3cc(Cl)c(Cl)cc3n21)c1cccc(CO)n1` (stereo not shown) [Example 97, N-[10,11-dichloro-4-oxo-3-(trifluoromethyl)-2,5,7-triazatricyclo[6.4.0.0^2,6]dodeca-1(8),6,9,11-tetraen-3-yl]-6-(hydroxymethyl)pyridine-2-carboxamide] was tested. Which IC50 did it give?
A: 190 nM

Q: `N#Cc1cccc(C(=O)NC2(C(F)(F)F)C(=O)Nc3nc4cc(Cl)c(Cl)cc4n32)c1` (stereo not shown) [Example 100, 3-cyano-N-[10,11-dichloro-4-oxo-3-(trifluoromethyl)-2,5,7-triazatricyclo[6.4.0.0^2,6]dodeca-1(8),6,9,11-tetraen-3-yl]benzamide] was tested. Which IC50 did it give?
A: 2020 nM

Q: For `O=C(NC1(C(F)(F)F)C(=O)Nc2nc3cc(Cl)c(Cl)cc3n21)C1(F)CNC1` (stereo not shown) [Example 103, N-[10,11-dichloro-4-oxo-3-(trifluoromethyl)-2,5,7-triazatricyclo[6.4.0.0^2,6]dodeca-1(8),6,9,11-tetraen-3-yl]-3-fluoroazetidine-3-carboxamide], which IC50 is on record?
A: 3970 nM

Q: `O=C(CCN1CC(F)(F)C1)NC1(C(F)(F)F)C(=O)Nc2nc3cc(Cl)c(Cl)cc3n21` (stereo not shown) [Example 104, N-[10,11-dichloro-4-oxo-3-(trifluoromethyl)-2,5,7-triazatricyclo[6.4.0.0^2,6]dodeca-1(8),6,9,11-tetraen-3-yl]-3-(3,3-difluoroazetidin-1-yl)propanamide] was tested. Which IC50 did it give?
A: 4020 nM

Q: For `COCCNc1cccc(C(=O)NC2(C(F)(F)F)C(=O)Nc3nc4cc(C)c(C)cc4n32)n1` (stereo not shown) [Example 111, N-[10,11-dimethyl-4-oxo-3-(trifluoromethyl)-2,5,7-triazatricyclo[6.4.0.0^2,6]dodeca-1(8),6,9,11-tetraen-3-yl]-6-[(2-methoxyethyl)amino]pyridine-2-carboxamide], which IC50 is on record?
A: 1620 nM

Q: Which IC50 does the source give for `COCCNc1nc(C(=O)NC2(C(F)(F)F)C(=O)Nc3nc4cc(C)c(C)cc4n32)cs1` (stereo not shown) [Example 119, N-[10,11-dimethyl-4-oxo-3-(trifluoromethyl)-2,5,7-triazatricyclo[6.4.0.0^2,6]dodeca-1(8),6,9,11-tetraen-3-yl]-2-[(2-methoxyethyl)amino]-1,3-thiazole-4-carboxamide] here?
A: 1820 nM

Q: How did the IC50 turn out when `CC(=O)c1cccc2c1nc1n2C(NC(=O)CCC2CCCC2)(C(F)(F)F)C(=O)N1` (stereo not shown) [Example 122, N-[9-acetyl-4-oxo-3-(trifluoromethyl)-2,5,7-triazatricyclo[6.4.0.0^2,6]dodeca-1(12),6,8,10-tetraen-3-yl]-3-cyclopentylpropanamide] was run?
A: 1500 nM

Q: `O=C(CCC1CCCC1)NC1(C(F)(F)F)C(=O)Nc2nc3c(C(F)(F)F)cc(Br)cc3n21` (stereo not shown) [Example 129, N-[11-bromo-4-oxo-3,9-bis(trifluoromethyl)-2,5,7-triazatricyclo[6.4.0.0^2,6]dodeca-1(8),6,9,11-tetraen-3-yl]-3-cyclopentylpropanamide] was tested. Which IC50 did it give?
A: 2260 nM

Q: For `COCCNc1nc(C(=O)NC2(C(F)(F)F)C(=O)Nc3nc4c(C#N)c(Cl)ccc4n32)cs1` (stereo not shown) [Example 139, N-[10-chloro-9-cyano-4-oxo-3-(trifluoromethyl)-2,5,7-triazatricyclo[6.4.0.0^2,6]dodeca-1(8),6,9,11-tetraen-3-yl]-2-[(2-methoxyethyl)amino]-1,3-thiazole-4-carboxamide], which IC50 is on record?
A: 1270 nM

Q: For `O=C(CCC1CCCC1)NC1(C(F)(F)F)C(=O)Nc2nc3c(C(=O)O)cccc3n21` (stereo not shown) [Example 160, 3-(3-cyclopentylpropanamido)-4-oxo-3-(trifluoromethyl)-2,5,7-triazatricyclo[6.4.0.0^2,6]dodeca-1(12),6,8,10-tetraene-9-carboxylic acid], which IC50 is on record?
A: 740 nM

Q: Which IC50 does the source give for `O=C(CCC1CCCC1)NC1(C(F)(F)F)C(=O)Nc2nc3c(OC(F)(F)F)cccc3n21` (stereo not shown) [Example 164, 3-cyclopentyl-N-[4-oxo-9-(trifluoromethoxy)-3-(trifluoromethyl)-2,5,7-triazatricyclo[6.4.0.0^2,6]dodeca-1(12),6,8,10-tetraen-3-yl]propanamide] here?
A: 1470 nM

Q: For `O=C(CCC1CCCC1)NC1(C(F)(F)F)C(=O)Nc2nc3c(NS(=O)(=O)C4CC4)cccc3n21` (stereo not shown) [Example 165, 3-cyclopentyl-N-[9-cyclopropanesulfonamido-4-oxo-3-(trifluoromethyl)-2,5,7-triazatricyclo[6.4.0.0^2,6]dodeca-1(12),6,8,10-tetraen-3-yl]propanamide], which IC50 is on record?
A: 1430 nM
